Tested on: Purified human neutrophils
Assay: Lucigenin dependent chemiluminescence assay (neutrophil respiratory burst / priming for F-met-leu-phe response)
Type: cell-based
Conditions: fMLP alone
Method: Purified human neutrophils were pretreated with peptide for 20 minutes before the addition of f-met-leu-phe. The lucigenin dependent chemiluminescence response, which reflects superoxide production, was then measured. The results obtained are set out in Table 2 and are expressed as mV of lucigenin dependent chemiluminescence and represent the maximal cell activity attained.
This experiment was repeated with peptides 304, 308 and 309.
The experiment was also conducted using peptides 393, 394, 395 and 396. […]
Results are expressed as mV of lucigenin dependent chemiluminescence and respresent peak of response i.e. the maximal cell activity attained.

`CSCC[C@H](NC=O)C(=O)N[C@@H](CC(C)C)C(=O)N[C@@H](Cc1ccccc1)C(=O)O` [fMLP, N-formyl-L-methionyl-L-leucyl-L-phenylalanine] gave a Chemiluminescence (Exp. 1) of 1.53 mV, a Chemiluminescence (Exp. 2) of 3.53 mV and a Chemiluminescence (Exp. 3) of 1.96 mV.
